# Results: patent US8551984B2, “Aminopyrimidines as SYK inhibitors” (Merck Sharp & Dohme Corp., priority 2009, dated 2013)
# Biological target: recombinant human SYK (GST-hSYK fusion protein) (Homo sapiens, UniProt P43405)
# Experiment: biochemical
# [1] = rhSYK Activity, Table 64, first part
# [2] = rhSYK Activity (IC50), recombinant human GST-SYK 5 pM, ATP 25 μM, biotinylated substrate peptide 250 nM, HTRF, 10-dose titration
# From the text: Homogeneous Time-Resolved Fluorescence (HTRF) Assay for the Recombinant Human SYK Enzyme:
smiles,measurement,setting,value
Cc1cc(Nc2nccc(C3CC3)n2)cc(-c2cnc(C3(O)CCC(C(=O)O)C(C)(C)C3)s2)c1 (stereo not drawn) [Example 113A-51],IC50,"rhSYK Activity, Table 113A",< 100 nM
COc1nc(Nc2cc(C)cc(-c3cnc(C4(NC(N)=O)CCC4)s3)c2)ncc1Cl [Example 64-8],IC50,[1],< 100 nM
C=Cc1ccnc(Nc2cc(C)cc(-c3cnc([C@@]4(O)CC[C@H](C(=O)OC)C(C)(C)C4)s3)c2)n1 [Example 101-5],IC50,[2],< 100 nM
CCOC(=O)CCC1CCC(O)(c2ncc(-c3cc(C)cc(Nc4nccc(C(F)(F)F)n4)c3)s2)CC1 (stereo not drawn) [Example 33A-21],IC50,"rhSYK Activity, Table 33-A",< 100 nM
Cc1cc(Nc2nccc(C(F)(F)F)n2)cc(-c2cnc(CN3CC(COP(C)(C)=O)C3)s2)c1 [Example 88B-16],IC50,[2],< 100 nM
Cc1cc(Nc2nccc(C(F)(F)F)n2)cc(-c2cnc(C3(O)CCCN(C(=O)C4(C(=O)O)CC4)CC3)s2)c1 (stereo not drawn) [Example 54D-70],IC50,"rhSYK Activity, Table 54D",< 100 nM
"Cc1cc(Nc2nccc(C(O)C3CC3)n2)cc(-c2cnc(C3(O)CCC(C(=O)O)C(C)(C)C3)s2)c1 (single isomer, unassigned) [Example 100A-18]",IC50,[2],< 100 nM
Cc1cc(Nc2nccc(O[C@H]3CCNC3)n2)cc(-c2cnc(C(C)(O)C(F)(F)F)s2)c1 (stereo partly drawn) [Example 94B-9],IC50,[2],< 100 nM
"Cc1cc(Nc2nccc(C(F)(F)F)n2)cc(-c2cnc(CCc3ccc(C(=O)O)cc3)s2)c1 [Example 148, 4-{2-[5-(3-methyl-5-{[4-(trifluoromethyl)pyrimidin-2-yl]amino}phenyl)-1,3-thiazol-2-yl]ethyl}benzoic acid]",IC50,[2],< 100 nM
Cc1cc(Nc2nccc(C(F)(F)F)n2)cc(-c2cnc(-c3cccs3)s2)c1 [Example 114-5],IC50,[2],100 to 1000 nM
Cc1cc(Nc2ncc(F)c(C3CC3)n2)cc(-c2cnc([C@@]3(O)CC[C@H](C(=O)O)[C@H](C)C3)s2)c1 [Example 113A-33],IC50,"rhSYK Activity, Table 113A",< 100 nM
Cc1cc(Nc2nccc(C(F)(F)F)n2)cc(-c2cnc(C3(O)CCN(C(=O)NC4CCCCC4)CC3)s2)c1 [Example 54A-12],IC50,"RHSYK Activity, Table 54A",< 100 nM
Cc1cc(Nc2nccc(OCC3CCCOC3)n2)cc(-c2cnc(C3(O)CCC3)s2)c1 (stereo not drawn) [Example 108A-4],IC50,"rhSYK Activity, Table 108A",< 100 nM
Cc1cc(Nc2nccc(C(F)(F)F)n2)cc(-c2cnc(CN3CCC(C)(O)C3)s2)c1 (stereo not drawn) [Example 88B-2],IC50,[2],< 100 nM
Cc1cc(Nc2ncc(F)cn2)cc(-c2cnc(C3(O)CCC3)s2)c1 [Example 100A-4],IC50,[2],100 to 1000 nM
COc1ccnc(Nc2cc(C)cc(-c3cnc(C4(O)CCC4)s3)c2)n1 [Example 100A-1],IC50,[2],< 100 nM
Cc1cc(Nc2nccc(C(F)(F)F)n2)cc(-c2cnc(C3CCCNC(=O)C3)s2)c1 (stereo not drawn) [Example 36B-3],IC50,"rhSYK Activity, Table 36B",< 100 nM
"Cc1cc(Nc2nccc(C(F)(F)F)n2)cc(-c2cnc(C3(C(N)=O)CCCCC3)s2)c1 [Example 129, 1-[5-(3-methyl-5-{[4-(trifluoromethyl)pyrimidin-2-yl]amino}phenyl)-1,3-thiazol-2-yl]cyclohexanecarboxamide]",IC50,[2],< 100 nM
"Cc1cc(Nc2nccc(C(F)(F)F)n2)cc(-c2cnc(C3(O)CCCN(C(=O)c4[nH]nnc4Cl)CC3)s2)c1 (single isomer, unassigned) [Example 54D-100]",IC50,"rhSYK Activity, Table 54D",< 100 nM
CCOC(=O)C1CC(C)C(O)(c2ncc(-c3cc(C)cc(Nc4nccc(C(F)(F)F)n4)c3)s2)CC1C (stereo not drawn) [Example 113B-19],IC50,"rhSYK Activity, Table 113B",< 100 nM
Cc1cc(Nc2nc(C)cc(C)n2)cc(-c2cnc([C@]3(O)CC[C@@H](O)CC3)s2)c1 [116A-1],IC50,"rhSYK Activity, Table 116A",1000 to 10000 nM
Cc1cc(Nc2nccc(C)n2)cc(-c2cnc(C3(O)CC4CCC3CC4C(=O)O)s2)c1 (stereo not drawn) [Example 33C-18],IC50,"rhSYK Activity, Table 33C",< 100 nM
Cc1cc(Nc2ncc(F)c(C3CC3)n2)cc(-c2cnc(C3(NC(N)=O)CCC3)s2)c1 [Example 64-6],IC50,[1],< 100 nM
COC(=O)C1CC(O)CN1C(=O)c1ncc(-c2cc(C)cc(Nc3nccc(C(F)(F)F)n3)c2)s1 (stereo not drawn) [Example 87B-21],IC50,[2],< 100 nM
Cc1cc(Nc2nccc(C(F)(F)F)n2)cc(-c2cnc(CNCCCO)s2)c1 [Example 88A-19],IC50,[2],< 100 nM
Cc1cc(Nc2nccc(C(F)(F)F)n2)cc(-c2cnc(CCc3nnc(C)o3)s2)c1 [Example 79-8],IC50,[2],< 100 nM
"CC(=O)c1ccnc(Nc2cc(C)cc(-c3cnc(C(C)(O)C(F)(F)F)s3)c2)n1 (stereo not drawn) [Example 106, 1-[2-({3-methyl-5-[2-(1,1,1-trifluoro-2-hydroxypropan-2-yl)-1,3-thiazol-5-yl]phenyl}amino)pyrimidin-4-yl]ethanone]",IC50,[2],< 100 nM
CCOC(=O)C1CC(C)C(O)(c2ncc(-c3cc(C)cc(Nc4nccc(C)n4)c3)s2)CC1C (stereo not drawn) [Example 113B-8],IC50,"rhSYK Activity, Table 113B",< 100 nM
Cc1cc(Nc2nccc(C(C)C)n2)cc(-c2cnc([C@]3(O)CC[C@@H](C(=O)O)CC3)s2)c1 [116A-3],IC50,"rhSYK Activity, Table 116A",< 100 nM
Cc1cc(Nc2nccc(C(C)C)n2)cc(-c2cnc(C3(O)CCCN(C(=O)CCC(N)=O)CC3)s2)c1 (stereo not drawn) [Example 54D-15],IC50,"rhSYK Activity, Table 54D",< 100 nM
"Cc1cc(Nc2nccc(OC(C)C)n2)cc(-c2cnc([C@@]3(O)CC[C@H](C(N)=O)C(C)(C)C3)s2)c1 [Example 119, (1S,4R)-4-hydroxy-2,2-dimethyl-4-[5-(3-methyl-5-{[4-(propan-2-yloxy)pyrimidin-2-yl]-amino}phenyl)-1,3-thiazol-2-yl]cyclohexanecarboxamide]",IC50,[2],< 100 nM
Cc1cc(Nc2ncc(Cl)c(C)n2)cc(-c2cnc([C@]3(O)CC[C@@H](C(=O)O)CC3)s2)c1 [116A-4],IC50,"rhSYK Activity, Table 116A",< 100 nM
Cc1cc(Nc2nccc(C(F)(F)F)n2)cc(-c2cnc(C3(O)CCCN(C(=O)c4nnnn4C)CC3)s2)c1 (stereo not drawn) [Example 54D-55],IC50,"rhSYK Activity, Table 54D",< 100 nM
"Cc1cc(Nc2nccc(C(F)(F)F)n2)cc(-c2cnc(C3(c4nnco4)CC3)s2)c1 [Example 85, N-(3-methyl-5-{2-[1-(1,3,4-oxadiazol-2-yl)cyclopropyl]-1,3-thiazol-5-yl}phenyl)-4-(trifluoromethyl)pyrimidin-2-amine]",IC50,[2],< 100 nM
Cc1cc(Nc2nccc(C(F)(F)F)n2)cc(-c2cnc(C(C)(O)CCC(=O)O)s2)c1 (stereo not drawn) [Example 33D-10],IC50,"rhSYK Activity, Table 33D",< 100 nM
Cc1cc(Nc2ncc(F)c(C3CC3)n2)cc(-c2cnc(C3(O)CCC(C(=O)O)C(C)(C)C3)s2)c1 (stereo not drawn) [Example 113A-57],IC50,"rhSYK Activity, Table 113A",< 100 nM
Cc1cc(Nc2nccc(C)n2)cc(-c2cnc(C3(O)C(C)CC(C(=O)O)CC3C)s2)c1 (stereo not drawn) [Example 113B-28],IC50,"rhSYK Activity, Table 113B",< 100 nM
Cc1cc(Nc2nccc(C(F)(F)F)n2)cc(-c2cnc(C3(O)CCCN(C(=O)CO)CC3)s2)c1 (stereo not drawn) [Example 54D-121],IC50,"rhSYK Activity, Table 54D",< 100 nM
COC(=O)C1CCC(O)(c2ncc(-c3cc(C)cc(Nc4ncc(Cl)c(OC)n4)c3)s2)CC1(C)C (stereo not drawn) [116A-38],IC50,"rhSYK Activity, Table 116A",100 to 1000 nM
Cc1cc(Nc2nccc(C(F)(F)F)n2)cc(-c2cnc(C3(O)CCN(C4CCC(C(=O)O)C4)C3)s2)c1 (stereo not drawn) [54B-32],IC50,"rhSYK Activity, Table 54B",< 100 nM
CCOC(=O)C1CC(C)C(O)(c2ncc(-c3cc(C)cc(Nc4nccc(C(F)(F)F)n4)c3)s2)CC1C (stereo not drawn) [Example 113B-20],IC50,"rhSYK Activity, Table 113B",100 to 1000 nM
Cc1cc(Nc2nccc(C(F)(F)F)n2)cc(-c2cnc(CNCCCN(CCO)CCO)s2)c1 [Example 88A-51],IC50,[2],< 100 nM
Cc1cc(Nc2nccc(C(F)(F)F)n2)cc(-c2cnc(CN3CCC(P(=O)(O)O)C3)s2)c1 (stereo not drawn) [Example 88B-15],IC50,[2],< 100 nM
"Cc1cc(Nc2nccc(C)n2)cc(-c2cnc([C@@]3(O)CC[C@H](C(=O)O)C(C)(C)C3)s2)c1 [Example 152, (1S,4R)-4-Hydroxy-2,2-dimethyl-4-{5-[3-methyl-5-(4-methyl-pyrimidin-2-ylamino)-phenyl]-1,3-thiazol-2-yl}-cyclohexanecarboxylic acid]",IC50,[2],< 100 nM
"CC(=O)Nc1cc(Nc2nccc(OC3CCNCC3)n2)cc(-c2cnc(C3(O)CCC3)s2)c1 [109(2), N-(3-[2-(1-hydroxycyclobutyl)-1,3-thiazol-5-yl]-5-{[4-(piperidin-4-yloxy)pyrimidin-2-yl]-amino}phenyl)acetamide]",IC50,[2],< 100 nM
Cc1cc(Nc2nccc(C(F)(F)F)n2)cc(-c2cnc(C(C)(O)c3ccccc3OCC(=O)O)s2)c1 (stereo not drawn) [Example 33D-11],IC50,"rhSYK Activity, Table 33D",< 100 nM
Cc1cc(Nc2nccc(C(C)(C)C)n2)cc(-c2cnc(C3(O)CCC(C(=O)O)C(C)C3)s2)c1 (stereo not drawn) [116A-20],IC50,"rhSYK Activity, Table 116A",< 100 nM
Cc1cc(Nc2nccc(C(F)(F)F)n2)cc(-c2cnc(C3(O)CCCN(C(=O)CC#N)CC3)s2)c1 (stereo not drawn) [Example 54D-9],IC50,"rhSYK Activity, Table 54D",< 100 nM
Cc1cc(Nc2nccc([C@@H](C)F)n2)cc(-c2cnc([C@@]3(O)CC[C@H](C(=O)O)C(C)(C)C3)s2)c1 [116A-39],IC50,"rhSYK Activity, Table 116A",< 100 nM
COc1ccnc(Nc2cc(C)cc(-c3cnc(C4(O)CCN(C(N)=O)C4)s3)c2)n1 (stereo not drawn) [54B-10],IC50,"rhSYK Activity, Table 54B",< 100 nM
"COc1nc(Nc2cc(C)cc(-c3cnc(C4(O)CCC4)s3)c2)ncc1Cl [Example 102, 1-(5-{3-[(5-chloro-4-methoxypyrimidin-2-yl)amino]-5-methylphenyl}-1,3-thiazol-2-yl)-cyclobutanol]",IC50,[2],< 100 nM
Cc1cc(Nc2nccc(C(F)(F)F)n2)cc(-c2cnc(CNCC3(CO)CCOCC3)s2)c1 [Example 88A-49],IC50,[2],< 100 nM
Cc1cc(Nc2nccc(C(F)(F)F)n2)cc(-c2cnc(C3(O)CCN(C(=O)CN(C)C)CC3)s2)c1 [Example 54A-7],IC50,"RHSYK Activity, Table 54A",< 100 nM
Cc1cc(Nc2nccc(C(F)(F)F)n2)cc(-c2cnc(C(=O)NCC(C)(C)O)s2)c1 [Example 87A-11],IC50,[2],< 100 nM
FC(F)(F)c1ccnc(Nc2cccc(-c3cnc(C4CCc5ccccc54)s3)c2)n1 (stereo not drawn) [Example 21-7],IC50,"rhSYK Activity, Table 21",1000 to 10000 nM
COC(=O)C(C)N1CCC(O)(c2ncc(-c3cc(C)cc(Nc4nccc(C(F)(F)F)n4)c3)s2)CC1 (stereo not drawn) [Example 54A-72],IC50,"RHSYK Activity, Table 54A",< 100 nM
Cc1cc(Nc2nccc(C(F)(F)F)n2)cc(-c2cnc(CNC(C)CO)s2)c1 (stereo not drawn) [Example 88A-15],IC50,[2],< 100 nM
Cc1cc(Nc2nccc(C(F)(F)F)n2)cc(-c2cnc(C(C)N(C)C)s2)c1 (stereo not drawn) [Example 88A-38],IC50,[2],< 100 nM
CC(O)(c1ncc(-c2cc(Nc3nccc(C(F)(F)F)n3)cc(N3CCOCC3)c2)s1)C(F)(F)F (stereo not drawn) [24-7],IC50,"rhSYK Activity, Table 24",< 100 nM
Cc1cc(Nc2nccc(OCCCc3cccnc3)n2)cc(-c2cnc(C3(O)CCC3)s2)c1 [Example 108A-29],IC50,"rhSYK Activity, Table 108A",< 100 nM
